Assay results taken from the supplement of paper PMC10331698.
± gives the standard deviation of the averaged measurements.

Assays:
Test in all cases: level (log10 ratio to DMSO vehicle control); higher = higher biomarker level / cell amount than vehicle control
Details in all cases: in DMSO
[1] = compound: O=P(O)(O)CCC(F)(F)C(F)(F)C(F)(F)C(F)(F)C(F)(F)C(F)(F)C(F)(F)C(F)(F)F [((Perfluorooctyl)ethyl)phosphonic acid]
Protocol: (§1)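 BioMAP Diversity Plus panel of 12 human primary cell co-culture systems (3C, 4H, LPS, SAg, BT, BF4T, BE3C, CASM3C, HDF3CGF, KF3CT, MyoF, Mphg). Compounds were added 1 h before stimulation and left for 24 h (MyoF 48 h; BT 72 h for soluble read-outs or 6 d for IgG). Biomarkers were read by ELISA, cytotoxicity by SRB, PBMC viability and proliferation by Alamar Blue. Each well value was divided by the mean of 8 DMSO control wells on the same plate and log10 transformed; duplicate blinded samples were tested at 4 concentrations.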

[2] = compound: O=C(O)C(F)(F)C(F)(F)C(F)(F)C(F)(F)C(F)(F)C(F)(F)C(F)(F)C(F)(F)C(F)(F)C(F)(F)C(F)(F)C(F)(F)F [Perfluorotridecanoic acid]
Protocol: as §1

Azathioprine = compound: Cn1cnc([N+](=O)[O-])c1Sc1ncnc2[nH]cnc12 [Azathioprine]
Protocol: as §1

[3] = compound: O=C(O)CCC(F)(F)C(F)(F)C(F)(F)F [3:3 Fluorotelomer carboxylic acid]
Protocol: as §1

[4] = compound: OCC(F)(F)C(F)(F)C(F)(F)C(F)(F)C(F)(F)C(F)F [1H,1H,7H-Dodecafluoro-1-heptanol]
Protocol: as §1

Perfluorooctanamidine = compound: N=C(N)C(F)(F)C(F)(F)C(F)(F)C(F)(F)C(F)(F)C(F)(F)C(F)(F)F [Perfluorooctanamidine]
Protocol: as §1

Test System	level (log10) ([1]; 6700 nM)	level (log10) ([1]; 20000 nM)	level (log10) ([1]; 60000 nM)	level (log10) ([2]; 1500 nM)	level (log10) ([2]; 4400 nM)	level (log10) ([2]; 13000 nM)	level (log10) ([2]; 40000 nM)	level (log10) (Azathioprine; 1400 nM)	level (log10) (Azathioprine; 4200 nM)	level (log10) (Azathioprine; 13000 nM)	level (log10) (Azathioprine; 38000 nM)	level (log10) ([3]; 6700 nM)	level (log10) ([3]; 20000 nM)	level (log10) ([3]; 60000 nM)	level (log10) ([4]; 6700 nM)	level (log10) ([4]; 20000 nM)	level (log10) ([4]; 60000 nM)	level (log10) (Perfluorooctanamidine; 6700 nM)	level (log10) (Perfluorooctanamidine; 20000 nM)	level (log10) (Perfluorooctanamidine; 60000 nM)
BE3C:CD87/uPAR	0.0235 ± 0.025	0.04 ± 0.035	0.079 ± 0.038	0.012 ± 0.038	-0.013 ± 0.0071	0.006 ± 0.018	0.0335 ± 0.03	0.0185 ± 0.029	-0.014 ± 0.0042	-0.0175 ± 0.057	-0.0435 ± 0.063	0.0045 ± 0.016	-0.0035 ± 0.011	0.0115 ± 0.019	0.018 ± 0.033	0.011 ± 0.0028	0.013 ± 0.011	-0.001 ± 0.014	-0.0035 ± 0.057	0.083
BE3C:CXCL8/IL-8	0.0305 ± 0.033	0.019 ± 0.028	-0.001 ± 0.048	-0.002 ± 0.045	0.01 ± 0.045	-0.0215 ± 0.00071	0.0115 ± 0.00071	-0.012 ± 0.059	-0.013 ± 0.054	-0.052	-0.088 ± 0.013	-0.0085 ± 0.036	0.0075 ± 0.005	-0.0095 ± 0.0092	0.0245 ± 0.053	0.0005 ± 0.032	-0.009 ± 0.014	0.029 ± 0.042	-0.026 ± 0.061	-0.034
BE3C:CXCL9/MIG	0.0165 ± 0.0064	0.011 ± 0.0057	0.013 ± 0.021	-0.0015 ± 0.015	-0.0045 ± 0.0035	-0.014 ± 0.0099	-0.0125 ± 0.013	-0.006 ± 0.0085	0.0005 ± 0.0035	-0.0025 ± 0.013	-0.0015 ± 0.013	0.006 ± 0.0099	0.0055 ± 0.00071	0.01 ± 0.0014	0.0135 ± 0.0021	0.003 ± 0.014	0.0115 ± 0.013	0.0135 ± 0.018	0.0085 ± 0.0092	0.037
BE3C:CXCL10/IP-10	-0.0055 ± 0.0064	-0.001 ± 0.0099	-0.0045 ± 0.0078	-0.0015 ± 0.029	-0.019 ± 0.027	-0.038 ± 0.03	-0.0365 ± 0.056	0.0015 ± 0.028	0.0115 ± 0.028	0.001 ± 0.024	0.001 ± 0.0085	-0.0015 ± 0.005	0.0045 ± 0.015	0.013 ± 0.0099	0.0055 ± 0.028	0.004 ± 0.021	0.0125 ± 0.012	0.0045 ± 0.023	-0.0055 ± 0.0035	0.003
BE3C:CXCL11/I-TAC	-0.0285 ± 0.011	-0.0225 ± 0.0064	-0.0205 ± 0.0035	0.007 ± 0.0014	-0.048 ± 0.027	-0.089 ± 0.021	0 ± 0.0085	-0.0205 ± 0.035	0.008 ± 0.0028	0.01 ± 0.031	0.025 ± 0.051	-0.004 ± 0.021	0.0045 ± 0.005	0.0005 ± 0.0035	0.003 ± 0.02	0.0115 ± 0.012	0.007 ± 0.021	-0.0055 ± 0.0078	-0.014 ± 0.016	-0.014
BE3C:EGFR	-0.025 ± 0.014	-0.0355 ± 0.025	-0.0345 ± 0.033	0.0145 ± 0.04	-0.008 ± 0.031	0.0005 ± 0.022	0.006 ± 0.0014	0.007 ± 0.02	-0.0125 ± 0.0035	-0.0055 ± 0.005	-0.0095 ± 0.019	0.006 ± 0.0057	0.0105 ± 0.013	-0.0015 ± 0.005	0.0125 ± 0.0092	-0.0005 ± 0.0092	0.0095 ± 0.0021	-0.009 ± 0.0014	-0.013 ± 0.014	-0.022
BE3C:HLA-DR	-0.025 ± 0.0099	-0.031 ± 0.013	-0.0075 ± 0.013	-0.0105 ± 0.04	-0.0325 ± 0.013	-0.0355 ± 0.0078	-0.0195 ± 0.019	-0.0075 ± 0.021	-0.0095 ± 0.0021	-0.0165 ± 0.021	-0.032 ± 0.044	-0.0345 ± 0.035	-0.018 ± 0.011	-0.0225 ± 0.005	0.0155 ± 0.032	-0.0015 ± 0.042	-0.0095 ± 0.015	-0.0015 ± 0.018	-0.003 ± 0.021	-0.01
BE3C:IL-1alpha	-0.017 ± 0.016	-0.019 ± 0.025	0.0085 ± 0.056	0.027 ± 0.04	-0.0165 ± 0.0078	0.0035 ± 0.023	0.024 ± 0.0057	-0.012 ± 0.0099	0.0045 ± 0.011	-0.019 ± 0.0085	-0.031 ± 0.051	0.0135 ± 0.037	0.0255 ± 0.039	0.0155 ± 0.035	0.0085 ± 0.021	0.0045 ± 0.0092	0.024 ± 0.0057	0.0065 ± 0.026	0.002 ± 0.0028	0.047
BF4T:CCL2/MCP-1	0.0125 ± 0.019	0.0295 ± 0.026	0.061 ± 0.02	0.025 ± 0.0028	0.0195 ± 0.028	0.035 ± 0.0042	0.0175 ± 0.013	0.0185 ± 0.015	0.0025 ± 0.019	-0.006 ± 0.011	-0.021 ± 0.0099	-0.0025 ± 0.0021	-0.018 ± 0.0014	-0.01 ± 0.041	0.022 ± 0.05	0.0085 ± 0.057	0.009 ± 0.02	0.031 ± 0.0099	0.025 ± 0.045	0.06
BF4T:CCL26/Eotaxin-3	-0.084 ± 0.0099	-0.157 ± 0.018	-0.14 ± 0.056	-0.0035 ± 0.052	-0.0725 ± 0.022	-0.089 ± 0.04	-0.0555 ± 0.026	0.0215 ± 0.059	0.025 ± 0.058	0.007 ± 0.014	-0.0025 ± 0.032	-0.015 ± 0.018	-0.0095 ± 0.026	0.009 ± 0.018	0.0025 ± 0.043	-0.0005 ± 0.036	0.013 ± 0.028	0.0375 ± 0.044	-0.0585 ± 0.026	-0.106
BF4T:CD54/ICAM-1	0.0035 ± 0.029	0.001 ± 0.031	-0.0035 ± 0.046	0.01 ± 0.023	0.0115 ± 0.015	-0.01 ± 0.0028	0.0115 ± 0.025	0.007 ± 0.02	-0.0025 ± 0.013	-0.012 ± 0.0071	-0.0155 ± 0.022	-0.0075 ± 0.0092	0.007	-0.008 ± 0.0071	0.0045 ± 0.0064	0.004 ± 0.014	0.006 ± 0.013	-0.001 ± 0.0085	-0.006 ± 0.017	0.039
BF4T:CD90	0.001 ± 0.0099	0.0035 ± 0.005	0.014 ± 0.021	-0.0015 ± 0.016	-0.002 ± 0.016	-0.001 ± 0.013	0.005 ± 0.0014	-0.0025 ± 0.00071	-0.0075 ± 0.0035	-0.0305 ± 0.023	-0.024 ± 0.018	-0.0025 ± 0.005	-0.009 ± 0.0014	-0.0085 ± 0.013	-0.0045 ± 0.0035	-0.0085 ± 0.012	-0.0035 ± 0.015	0.0025 ± 0.015	-0.0115 ± 0.005	0.042
BF4T:CD106/VCAM-1	-0.009 ± 0.018	0.0185 ± 0.019	0.0205 ± 0.052	0.005 ± 0.065	0.007 ± 0.028	0.0035 ± 0.0064	-0.0205 ± 0.0092	-0.0185 ± 0.015	-0.026 ± 0.025	-0.038	-0.139 ± 0.016	-0.012 ± 0.041	0.0075 ± 0.0078	0.0205 ± 0.018	-0.0065 ± 0.039	-0.0035 ± 0.013	0.011 ± 0.031	0.0325 ± 0.0092	0.018 ± 0.052	0.021
BF4T:CXCL8/IL-8	0.0075 ± 0.012	0.026 ± 0.017	0.0325 ± 0.0092	0.023 ± 0.031	0.005 ± 0.025	0.0175 ± 0.019	0.028 ± 0.016	-0.013 ± 0.011	-0.0325 ± 0.0064	-0.0455 ± 0.016	-0.0405 ± 0.016	-0.0125 ± 0.025	-0.0155 ± 0.052	-0.019 ± 0.031	0.016 ± 0.051	0.0355 ± 0.04	0.0205 ± 0.03	0.0025 ± 0.016	0.002 ± 0.034	0
BF4T:IL-1alpha	-0.0165 ± 0.015	-0.001 ± 0.0028	0.015 ± 0.02	0.016 ± 0.025	-0.0195 ± 0.011	-0.009 ± 0.02	0.017 ± 0.018	-0.0055 ± 0.019	-0.0015 ± 0.0092	-0.009 ± 0.0057	0.0005 ± 0.033	-0.0035 ± 0.019	-0.009 ± 0.02	0.003	-0.006 ± 0.024	-0.006 ± 0.0099	-0.0085 ± 0.012	-0.003 ± 0.0085	-0.017 ± 0.0014	0.042
